Patent US12466807B2, “Salt and crystal form of a FAK inhibitor” (Amplia Therapeutics Limited, priority 2019, dated 2025)
Converted amounts (≈) assume the structure as drawn. Like-named read-outs stand apart in the source and are kept apart here.

Assays:
[1] = IV pharmacokinetics in rats (reported previously); format: in vivo, male Sprague Dawley rats; conditions: IV 4.48 mg/kg, rat
Source text: (§1) [formula] • AUCIV Area under the plasma concentration versus time profile from time zero to infinity after IV administration (reported previously: CDCO_FAK_11_031) • t1/2 Elimination half-life • λ2 Terminal elimination rate constant after IV administration • BA Oral bioavailability • AUCoral Area under the plasma concentration versus time profile from time zero to infinity after oral administration • Cmax Maximum plasma concentration observed after oral administration. • Tmax Time to achieve Cmax • Differences in pharmacokinetic parameters (t½, AUC, Cmax, Tmax and BA) between free base and L-tartrate salt were evaluated using an unpaired t-test testing for significance at α=0.05 (GraphPad Prism, version 7.01)

[2] = Oral exposure (pharmacokinetics) in rats; format: in vivo, male Sprague Dawley rats; conditions: rat
Method: To compare the exposure of the compound of Formula I in male Sprague Dawley rats following oral administration of the free base and L-tartrate salt at a target dose of 20 mg/kg (as free base equivalent).
Further details of the in-life, formulation and bioanalytical procedures together with the data analysis, are described in Appendix 1.
In-Life • The exposure of Formula I was studied in overnight-fasted male Sprague Dawley rats that had access to water ad libitum throughout the pre- and post-dose sampling period, and access to food was re-instated 4 h post-dose. In-life details are provided in Table A1-1. • Samples of arterial blood and total urine were collected up to 48 h post-dose. Arterial blood was collected directly into borosilicate vials (at 4° C.) containing heparin, Complete® (a protease inhibitor cocktail) and potassium fluoride to minimise potential for ex vivo degradation of Formula I in blood/plasma samples. Once collected, blood samples were centrifuged, supernatant plasma was removed and stored frozen (−80° C.) until analysis by LC-MS.
The extraction of the test compound from plasma samples was conducted using protein precipitation with acetonitrile. Both solution and plasma standards were freshly prepared, with each set of standards comprising at least seven different analyte concentrations. Solution standards were diluted from a stock solution (1 mg/mL in DMSO) with 50% acetonitrile in water. Plasma standards were prepared by spiking blank plasma (50 μL) with solution standards (10 μL) and the internal standard, diazepam (10 μL, 5 μg/mL).
Plasma samples were similarly prepared, except that blank acetonitrile (10 μL) was added instead of solution standards. Protein precipitation was carried out by the addition of acetonitrile (120 μL), vortexing (20 s) and centrifugation (10,000 rpm) in a microcentrifuge for 3 minutes. The supernatant was subsequently separated and 3 μL injected directly onto the column for LC/MS analysis using conditions tabulated below. All plasma concentrations are expressed as the non-salt equivalent.
Standard Calculations • Plasma concentration versus time data were analysed using non-compartmental methods (PKSolver Version 2.0). Standard calculations for each pharmacokinetic parameter are listed below.
as §1

[3] = Dynamic/gravimetric vapour sorption (DVS/GVS) hygroscopicity; format: physicochemical; conditions: at 90% R.H., 25° C.
Method: Approximately 10-20 mg of sample was placed into a mesh vapour sorption balance pan and loaded into the DVS-1 dynamic vapour sorption balance by Surface Measurement Systems. The sample was subjected to a ramping profile from 40-90% relative humidity (RH) at 10% increments, maintaining the sample at each step until a stable weight had been achieved (dm/dt 0.004%, minimum step length 30 minutes, maximum step length 500 minutes) at 25° C. After completion of the sorption cycle, the sample was dried using the same procedure to 0% RH and then a second sorption cycle back to 40% RH. Two cycles were performed. The weight change during the sorption/desorption cycles were plotted, allowing for the hygroscopic nature of the sample to be determined. XRPD analysis was then carried out on any solid retained.
Approximately 10-20 mg of sample was placed into a mesh vapour sorption balance pan and loaded into an IGASorp Moisture Sorption Analyser balance by Hiden Analytical. The sample was subjected to a ramping profile from 40-90% relative humidity (RH) at 10% increments, maintaining the sample at each step until a stable weight had been achieved (98% step completion, minimum step length 30 minutes, maximum step length 60 minutes) at 25° C. After completion of the sorption cycle, the sample was dried using the same procedure to 0% RH, and finally taken back to the starting point of 40% RH. Two cycles were performed. The weight change during the sorption/desorption cycles were plotted, allowing for the hygroscopic nature of the sample to be determined.

[4] = Thermodynamic solubility studies; format: physicochemical; conditions: for solubility thermodynamic at 24 h: buffer, 22 °C, thermodynamic from solid; for HPLC Conc: ca. 22° C.
Method: Thermodynamic Solubility Studies were carried out as follows: • Approximately 10 mg of Formula I free base Pattern 1 and L-tartrate Pattern 1, were weighed into a 1.5 mL screw-cap vial. The appropriate buffer system was added to create a slurry and the vials were shaken at ambient temperature (ca. 22° C.) for approximately 24 hours. • After this time, the slurries were transferred to centrifuge tubes containing nylon filters (0.22 μm) and filtered using a centrifuge for ca. 10 minutes. The isolated solids were then analyzed by XRPD and the filtrates measured by a pH meter and analyzed by HPLC for concentration.

[5] = Salt disproportionation studies; format: physicochemical
Method: Salt disproportionation studies were carried out as follows: • Approximately 10-20 mg of Formula I free base, L-tartrate Pattern 1 were weighed into HPLC vials. • 1 mL deionized water was then added to each vial and the vials capped and shaken at ambient temperature for 24 hours. • After this time, the samples were transferred to centrifuge tubes with nylon filters (0.22 μm) and centrifuged for approximately 15 minutes. The isolated solids were analyzed by XRPD and the filtrates analyzed by HPLC for concentration determination and the pH of all the filtrates were measured with a pH meter.

[6] = PO 20 mg/kg (free base equivalent), mean ± SD, n = 3, 20 mg/kg

For COc1cc(C2CCN(C)CC2)ccc1Nc1ncc(C(F)(F)F)c(CCc2ccccc2CC(N)=O)n1 [Formula I], the “% Dose in urine (unchanged Formula I)” value ([1]; pooled urine up to 24 h) was 1.14%, the half-life ([1]; male, Sprague Dawley, plasma, mean of n = 2, read-out: Apparent t1/2 (converted)) was 4.8 h and the AUC(0-inf) ([1]; male, Sprague Dawley, plasma, mean of n = 2, read-out: Plasma AUC0-inf) was 4.57 µM·h.

In the case of COc1cc(C2CCN(C)CC2)ccc1Nc1ncc(C(F)(F)F)c(CCc2ccccc2CC(N)=O)n1 [Free base], the BA [2, 6] is reported as 48.6 ± 9.2%, the Tmax [2, 6] is reported as 5.0 ± 0.0 h and the “Adverse reactions or compound-related side effects” value ([2]; PO 20 mg/kg, 48 h sampling period) is reported as “No adverse reactions or compound-related side effects were observed”. The “% Dose in urine (unchanged Formula I)” value ([2]; PO 20 mg/kg, pooled urine up to 48 h, 20 mg/kg) was 0.208 ± 0.24%, the Cmax ([2]; male, Sprague Dawley, plasma, po, 20 mg/kg, PO 20 mg/kg (free base equivalent), mean ± SD, n = 3) was 934 ± 260 nM and the half-life ([2]; male, Sprague Dawley, plasma, po, 20 mg/kg, PO 20 mg/kg (free base equivalent), mean ± SD, n = 3, read-out: Apparent t1/2 (converted)) was 5.6 ± 0.1 h. The AUC(0-inf) ([2]; male, Sprague Dawley, plasma, po, 20 mg/kg, PO 20 mg/kg (free base equivalent), mean ± SD, n = 3, read-out: Plasma AUC0-inf) was 9.93 ± 1.9 µM·h, the Tmax ([2]; male, Sprague Dawley, plasma, po, 20 mg/kg, PO 20 mg/kg (free base equivalent), mean ± SD, n = 3, read-out: Tmax) was 5 to 7 h and the “N-demethylation metabolite of Formula I” value ([2]; plasma and urine after PO 20 mg/kg, not quantified) was “detected in plasma and urine”. The “Hygroscopicity, mass uptake (DVS/GVS)” value [3] was “Uptake of 5 wt %”, the “Thermodynamic Solubility” value ([4]; Water) was under 100 µg/mL and the “pH Post-24 h Slurry” value ([4]; Water) was 5.63. For the same molecule, the solubility thermodynamic at 24 h ([4]; pH 1, simulated gastric fluid, pH 1.0) was 300 µg/mL (≈ 569 µM), the solubility thermodynamic at 24 h ([4]; pH 6.8, aqueous buffer, pH 6.8) was under 100 µg/mL and the “pH Post-24 h Slurry” value ([4]; pH 1.0) was 1.37. The “HPLC Conc” value ([4]; pH 1.0, 24 h slurry) was 0.3 mg/mL, the “XRPD Result” value ([4]; pH 1.0, solid after 24 h slurry, listed as Free Base) was “Possible HCl Salt” and the “XRPD Result” value ([4]; pH 1.0, solid after 24 h slurry, listed as free base) was “possible HCl salt”. For the same molecule, the “Thermodynamic Solubility” value ([4]; pH 4.5) was 11900 µg/mL, the “pH Post-24 h Slurry” value ([4]; pH 4.5) was 5.60 and the “HPLC Conc” value ([4]; pH 4.5, 24 h slurry) was 11.9 mg/mL. The “HPLC Conc” value ([4]; pH 4.5, 24 h slurry, listed as Formula I free base) was 11.9 mg/mL, the “XRPD Result” value ([4]; pH 4.5, solid after 24 h slurry) was “Free Base” and the “pH Post-24 h Slurry” value ([4]; pH 6.8) was 7.44. The “HPLC Conc” value ([4]; pH 6.8, 24 h slurry, listed as Free Base) was under 0.1 mg/mL, the “HPLC Conc” value ([4]; pH 6.8, 24 h slurry, listed as free base) was under 0.1 mg/mL and the “XRPD Result” value ([4]; pH 6.8, solid after 24 h slurry) was “Alternate crystalline form”. The “XRPD Result” value ([4]; pH 6.8, solid after 24 h slurry, listed as Formula I free base) was “change in XRPD pattern”, the “HPLC Conc” value ([4]; water, 24 h slurry) was under 0.1 mg/mL and the “HPLC Conc” value ([4]; water, 24 h slurry, listed as Formula I free base) was under 0.1 mg/mL. The “XRPD Result” value ([4]; water, solid after 24 h slurry) was “Free Base”, the “Water pH Post-24 h” value ([5]; deionized water, 24 h, ambient temperature) was 5.63 and the “XRPD Result” value ([5]; solid after 24 h in deionized water) was “Free Base”.
